Results on 1 compound are retold here after patent US6415046B1, “Method and apparatus for the early detection of tissue pathology using wavelet transformation” (priority 1999, dated 2002).

Read-outs that look alike come from different tables or passages of the source. Marks after values point to notes of the source that are not given here.

For series [1] the following is noted: mean±SEM; for Body weights at the time of echocardiographic examination: Experiment 1; for Body weights: Experiment 2, 10-weeks.
Description: Two groups of laboratory rats were used to perform two separate experiments (Experiments 1 and 2). Male Sprague-Dawley SPF rats (Charles River Laboratories, Wilmington, Ma.) weighing between 175-200 grams were used for each study. Rats were housed two per cage in a controlled-temperature (20-22° Celsius) room where they were exposed to a 12-hour light/dark cycle. Both groups of animals received food and either water or ethanol ad lib. Body weights were recorded on a weekly basis and fluid consumption was monitored in all groups for the duration of the study.
(§1) Rats in the diabetic group were injected with streptozotocin (45 mg/kg) prepared in a 0.02 M sodium citrate solution (pH 4.5) via a tail vein to induce diabetes mellitus. Rats assigned to all other groups were injected with a similar volume of sodium citrate solution. Glycosylated hemoglobin (total) was measured in tail-vein blood in all rats within two days of echocardiographic examination using a commercially available kit (Sigma Chemical Co, St. Louis, Mo.).
(§2) Twenty-five rats were used in this experiment with five animals in each group.
Series [2] has as its system Male Sprague-Dawley SPF rats. The note with it: mean±SEM.
Description: Two groups of laboratory rats were used to perform two separate experiments (Experiments 1 and 2). Male Sprague-Dawley SPF rats (Charles River Laboratories, Wilmington, Ma.) weighing between 175-200 grams were used for each study. Rats were housed two per cage in a controlled-temperature (20-22° Celsius) room where they were exposed to a 12-hour light/dark cycle. Both groups of animals received food and either water or ethanol ad lib. Body weights were recorded on a weekly basis and fluid consumption was monitored in all groups for the duration of the study. The study was approved by the Louisiana State University Medical Center Institutional Animal Care and Use Committee.
as §1, §2
All animals were anesthetized with a solution of ketamine-xylazine (50-mg/kg ketamine, 4-mg/kg xylazine, intraperitoneal) and the thoracic and upper abdominal areas shaved prior to echocardiography. The rats were positioned on a table for M-mode and two-dimensional echocardiograms. Studies were performed with a Toshiba Model 380 Echocardiography instrument (Toshiba America Medical Systems, Tustin, Calif.) using a 10 MHZ transducer calibrated with phantoms prior to use. Lateral resolution less than 0.20 mm within the ROI is achieved at the imaging depths used.
In series [3] the test system is Male Sprague-Dawley SPF rats. The note with it: 10-week rats. On the procedure:
In Experiment 2 (10-week), cardiac and renal tissues were harvested, rinsed in ice-cold physiologic saline, and then placed in 10% (v/v) formaldehyde solution in aqueous phosphate buffer (pH 7.4) (Mallinckrodt Inc., St. Louis, Mo.). Pancreatic tissue was harvested and fixed in buffered zinc-formaldehyde. Microscopic analysis were performed on H&E stained tissue slices.
Tissues from 10-week rats were analyzed using H&E staining. […] The degree of infiltration was evaluated qualitatively as none, few (1-4 cells per field), or marked infiltration.

Where [4] appears, read: DE4 group (diabetic, 4% ethanol).
The mark [5] stands for this setting: E12 group (non-diabetic, 12% ethanol).
[6] abbreviates: Experiment 1 (5 Wks), diabetic rats, 4% ethanol.
The mark [7] stands for this setting: Experiment 1 (5 Wks), non-diabetic rats, 12% ethanol.
[8] abbreviates: Experiment 2 (10 Wks), diabetic rats, 4% ethanol.
The mark [9] stands for this setting: Experiment 2 (10 Wks), non-diabetic rats, 4% ethanol.
Where [10] appears, read: Experiment 2 (10 Wks), non-diabetic rats, 12% ethanol.

On to `CCO` [Ethanol, ethanol], for which the “Body weights at the time of echocardiographic examination” value in series [1] (setting [4]) is recorded as 292±22 grams (g); in series [1] (setting [5]), 301±11 grams (g). Further, the Body weights in series [1] (setting [4]) came to 295 ± 16 g; in series [1] (E4 group (non-diabetic, 4% ethanol)) it was 598 ± 29 g; in series [1] (setting [5]), 581 ± 25 g. Besides, the IVSD in series [2] (setting [6]) is recorded as 0.120 ± 0.004 cm; in series [2] (setting [7]), 0.130 ± 0.007 cm; in series [2] (setting [8]), 0.105 ± 0.005 cm; in series [2] (setting [9]) it was 0.126 ± 0.01^a cm; in series [2] (setting [10]), 0.151 ± 0.004^b cm. The LVD in series [2] (setting [6]) is on record as 0.455 ± 0.027 cm; in series [2] (setting [7]), 0.540 ± 0.027 cm; in series [2] (setting [8]), 0.618 ± 0.032 cm; in series [2] (setting [9]), 0.533 ± 0.033 cm; in series [2] (setting [10]), 0.593 ± 0.018 cm. Moreover, the PWD was 0.143 ± 0.005 cm in series [2] (setting [6]); 0.150 ± 0.003 cm in series [2] (setting [7]); 0.125 ± 0.004^d cm in series [2] (setting [8]); 0.155 ± 0.005^c cm in series [2] (setting [9]); 0.159 ± 0.002^c cm in series [2] (setting [10]). The “Rats with clear cells, indicative of glycogen deposition, in the kidney” value in series [3] (setting [4]) was found to be 60%. Also, the “Lymphocytic infiltrates in myocardial IVS on histologic examination” value is on record as “did not show infiltrates” in series [3] (DE group (diabetic, 4% ethanol)); “marked lymphocytic infiltrates” in series [3] (E4 group, all animals, graded none, few (1-4 cells per field), marked); “marked lymphocytic infiltrates” in series [3] (E12 group, all animals, graded none, few (1-4 cells per field), marked).
